Values quoted from earlier work in patent publication US4076804A, “Erythromycin therapy” (Abbott Laboratories, priority 1976, dated 1978).

Conditions: general statement, no test described

SMILES: CCOC(=O)CCC(=O)O[C@H]1[C@H](O[C@@H]2[C@@H](C)[C@H](O[C@H]3C[C@@](C)(OC)[C@@H](O)[C@H](C)O3)[C@@H](C)C(=O)O[C@H](CC)[C@@](C)(O)[C@H](O)[C@@H](C)C(=O)[C@H](C)C[C@@]2(C)O)O[C@H](C)C[C@@H]1N(C)C [EES, erythromycin ethyl succinate]
- toxicity: very low toxicity
